Values after ≈ are worked out from the molar mass of the structure shown.

A word on the kinetic solubility: it is the concentration staying in solution when a stock, usually in DMSO, is diluted into the medium.

For the data set the following is noted: buffer; pH 7.4; 200.0 µM.
In turn, `O=C(c1cnc2sccn2c1=O)N1CCN(c2ccccc2Cl)CC1` displayed a solubility (kinetic) of 54.4 µg/mL (≈ 145 µM).

`CC(CN1CCCC1)OC(=O)c1ccc(Cl)cc1Cl.Cl` (centres undefined): the solubility (kinetic) is above 50.8 µg/mL. To `O=C(OCc1ccccc1Cl)c1cc([N+](=O)[O-])ccc1N1CCOCC1` belongs 3.4 µg/mL (≈ 9.02 µM); to `CN(C(=O)/C=C/c1ccco1)c1ccccc1C(=O)O`, above 40.7 µg/mL; to `COc1ccc(S(=O)(=O)N2CCNC(=O)CC2)cc1`, 35.1 µg/mL (≈ 123 µM). With `C=C(c1ccccc1C)[n+]1ccccc1` the figure was 22.1 µg/mL; with `COc1ccc(NC(=O)N2CCCCCC2)cc1OC`, above 41.8 µg/mL; with `O=C(CN1C(=O)c2ccccc2S1(=O)=O)NCc1cccs1`, 22.2 µg/mL (≈ 66 µM). To `O=C(c1cccc(OCc2ccccc2)c1)N1CCOCC1` belongs 42.9 µg/mL (≈ 144 µM); to `CC(=O)c1cn(Cc2ccc(F)cc2)c2ccccc12`, 1.9 µg/mL (≈ 7.11 µM); to `CC(C)CC(=O)Nc1ccc(-c2cn3cccnc3n2)cc1`, above 44.2 µg/mL.

Consider `CCCc1nc2oc3ccccc3c(=O)c2c(=O)n1-c1ccc(C)cc1`, for which the kinetic solubility came out at 39.8 µg/mL (≈ 115 µM). As to `O=C1CCC(C(=O)NCc2ccccc2)N1` (centres undefined), the kinetic solubility came out at 30.8 µg/mL (≈ 141 µM). The molecule `CCOC(=O)C(=O)N1CCC(Cc2ccccc2)CC1` had a kinetic solubility of 35.8 µg/mL (≈ 130 µM).

Take `O=[N+]([O-])c1ccc2nc(N3CCCC3)sc2c1`: the kinetic solubility was 2.8 µg/mL (≈ 11.2 µM). To `N/C(CS(=O)(=O)c1ccccn1)=N\OC(=O)c1ccc(Cl)cc1` belongs 19.1 µg/mL (≈ 54 µM); to `NS(=O)(=O)c1ccc(CCNC(=O)c2ccc3c(=O)n4c(nc3c2)CCCCC4)cc1`, 8.2 µg/mL (≈ 18.6 µM); to `O=C(CSc1nccn1-c1ccccc1)NO`, 32.1 µg/mL (≈ 129 µM). To `O=C(O)c1cccc(-n2c(/C=C/c3ccccc3)nc3ccccc3c2=O)c1` belongs above 55.3 µg/mL; to `O=C(CSc1ncc(-c2ccccc2)[nH]1)Nc1ccccc1F`, above 49.1 µg/mL. With `CC(=O)c1c(C)[nH]c(C(=O)Nc2cccc(C(F)(F)F)c2)c1C` the figure was 2 µg/mL (≈ 6.17 µM); with `Cl.O=S(=O)(CCc1ccncc1)c1ccc(Cl)cc1`, above 47.7 µg/mL; with `Cc1cccc(CC(=O)c2c[nH]c3ccccc23)c1`, 0.9 µg/mL (≈ 3.61 µM). `Cc1cccc(NC(=O)CCn2c(=O)oc3ccccc32)c1`: the kinetic solubility came out at 38.2 µg/mL (≈ 129 µM). With `CCCCOC(=O)C1=C(C)NC(=O)NC1c1ccccc1` (centres undefined), the solubility (kinetic) is 13.5 µg/mL (≈ 46.8 µM). With `Cc1cc(C)n(-c2ccnc3cc(Cl)ccc23)n1` the figure was above 38.7 µg/mL; with `CC1CC(=O)Nc2ccccc2N1C(=O)CN1C(=O)C(=O)N(C)C1=O` (centres undefined), above 51.6 µg/mL; with `FC(F)(F)c1nc2ccccc2[nH]1`, above 27.9 µg/mL. To `O=[N+]([O-])c1c(NCCCO)cc(N2CCCCCC2)c2nonc12` belongs 28.6 µg/mL (≈ 85.3 µM); to `Cc1nc(C)c(C(=O)OCC(=O)NCc2ccccc2Cl)s1`, 26.4 µg/mL (≈ 77.9 µM); to `COc1cc(S(=O)(=O)N2CCOCC2)cc(C(=O)NCC(c2cccs2)N2CCOCC2)c1OC` (centres undefined), 7.4 µg/mL (≈ 14.1 µM). With `O=C(CNC(=O)c1ccccc1)NCc1nc2ccccc2[nH]1` the figure was 39.4 µg/mL (≈ 128 µM); with `C=CCn1c(O)c(/C=N/N2CCCCC2)c(=O)[nH]c1=O`, above 41.7 µg/mL; with `CC(=O)c1cn(C(=O)c2ccc(Cl)cc2)c2ccccc12`, 3.6 µg/mL (≈ 12.1 µM). The molecule `CP(=O)(Nc1ccccc1)C(Cl)(Cl)Cl` (centres undefined) returned a solubility (kinetic) above 40.9 µg/mL. With `CN1CCN(C(=S)c2ccc(-c3cc(Cl)ccc3Cl)o2)CC1` the figure was 3.3 µg/mL (≈ 9.29 µM); with `Cc1ccc(-n2c(C)c(C)c3c(N)ncnc32)cc1`, 16.1 µg/mL (≈ 63.8 µM); with `N#Cc1ccccc1CN1C(=O)c2ccccc2S1(=O)=O`, 0.8 µg/mL (≈ 2.68 µM). `C=CCN1C(=O)C(=O)N(CC(=O)NCC(=O)Nc2ccc(F)c(F)c2F)C1=O` yielded a solubility (kinetic) above 59.7 µg/mL.

`Cc1ccc(S(=O)(=O)CCC(=O)NC2CCCCC2)cc1` gave a solubility (kinetic) above 46.4 µg/mL. To `O=C(Cn1ccccc1=S)c1ccc(Cl)c(Cl)c1` belongs 6.3 µg/mL (≈ 21.1 µM); to `O=C(Nc1ccc(-n2cccc2)cc1)C1CC1`, 6.4 µg/mL (≈ 28.3 µM); to `Cc1ccc(C)c(OCCC(=O)OCC(=O)NC(=O)NC2CCCCC2)c1`, 3.9 µg/mL (≈ 10.4 µM). To `O=C(Cc1ccc(-c2ccccc2)cc1)Nc1ccccn1` belongs 12 µg/mL (≈ 41.6 µM). To `Cc1cc2occ(CC(=O)NC3(C)CCS(=O)(=O)C3)c2cc1C` (centres undefined) belongs above 50.3 µg/mL; to `O=C1c2ccccc2NC(c2cccc([N+](=O)[O-])c2)N1O` (centres undefined), above 42.8 µg/mL; to `Fc1ccccc1-c1csc(-c2cccnc2)n1`, 0.4 µg/mL (≈ 1.56 µM). Turning to `CN(CC(=O)Nc1c(Cl)cccc1Cl)C(=O)CCC1CCCC1`, the solubility (kinetic) was determined as 53.4 µg/mL (≈ 149 µM).

Regarding `O=C(CSc1nc2ccccc2o1)N/N=C/c1ccc(C(=O)O)cc1`, the solubility (kinetic) is above 53.3 µg/mL.

`COc1cc2c(cc1OC)CN(C(=O)c1ccco1)CC2`: the kinetic solubility is above 43.1 µg/mL. `CC(=O)Nc1cc2c3c(c1)CCN3C(=O)CC2` came in with a kinetic solubility above 34.5 µg/mL. To `CCOC(=O)c1cc(-c2csc(-c3ccc(C(F)(F)F)cc3)n2)on1` belongs below 0.4 µg/mL.

Molecule `S=C(NCc1ccccc1)NC1CCSc2ccccc21` (centres undefined) displayed a solubility (kinetic) of 1.2 µg/mL (≈ 3.82 µM). With `COc1nccc(NCc2ccccc2)c1C#N` the figure was 20.1 µg/mL (≈ 84 µM); with `COc1ccc(CC(=O)O/N=C(\N)c2ccncc2)cc1`, 39.9 µg/mL (≈ 140 µM); with `CCN(CC(=O)NCc1ccccn1)S(=O)(=O)c1ccc(OC)cc1`, above 54.5 µg/mL. To `Fc1cnc(Cl)nc1N1CCN(c2ccccc2)CC1` belongs 17.4 µg/mL (≈ 59.4 µM); to `COC(=O)c1ccc(CN2C(=O)c3ccccc3C2=O)o1`, above 42.8 µg/mL. Molecule `Cc1ccc(C2=NOC(=O)/C2=C\c2ccc(C)o2)cc1` gave a kinetic solubility of 36.3 µg/mL (≈ 136 µM).

In turn, `O=C(COc1ccccc1)Nc1ccccc1F` showed a kinetic solubility of 32.7 µg/mL (≈ 133 µM). To `CC(C)Cc1nnc(NC(=O)C2=COCCO2)s1` belongs above 40.4 µg/mL. With `C[C@@H](C(=O)OCC(=O)c1ccc(F)c(F)c1)N1C(=O)C2CCCCC2C1=O` (some centres undefined) the figure was above 56.9 µg/mL; with `CC(C)(C)c1ccc(C(=O)Nc2ccc(Oc3cccnc3)nc2)cc1`, 14.1 µg/mL (≈ 40.6 µM).

In turn, `CN1CCCN(Cc2nc(-c3ccc(Cl)cc3)no2)CC1` had a solubility (kinetic) of 40.4 µg/mL (≈ 132 µM). With `COc1ccc(CC(=O)Nc2ccccc2N2CCCC2)cc1` the figure was 41.6 µg/mL (≈ 134 µM). To `COC(=O)CCC(=O)Nc1cccc([N+](=O)[O-])c1` belongs above 37.8 µg/mL. In the case of `Cc1ccc2c(c1)C1C3CCC(C3)C1S(=O)N2` (centres undefined), the solubility (kinetic) is above 37.1 µg/mL.

Molecule `Cc1cccc(Nc2nc(C)cc(C)c2C#N)c1` had a solubility (kinetic) of 0.8 µg/mL (≈ 3.37 µM). `CCCc1nc2ccccc2n1C(=S)SC` had a kinetic solubility of 12.3 µg/mL (≈ 49.1 µM).

On to `CC1CC(C)CN(S(=O)(=O)c2ccc(C(C)(C)C)cc2)C1` (centres undefined), for which the solubility (kinetic) is below 0.7 µg/mL.

Molecule `O=C(OCc1ccc([N+](=O)[O-])cc1)c1cnc(Cl)c(Cl)c1` yielded a kinetic solubility of 0.4 µg/mL (≈ 1.22 µM).

On to `CCOC(=O)c1c(-c2ccc(C)s2)csc1N`, for which the solubility (kinetic) amounted to 7.3 µg/mL (≈ 27.3 µM). To `Cc1cc(Nc2ccc(F)c(F)c2)nc(-c2ccccc2O)n1` belongs below 0.2 µg/mL; to `CC#CC[N+](C)(C)CCCCCC.[Cl-]`, 27.8 µg/mL; to `NC(=O)C1CC(=O)N(CCc2ccc(F)cc2)C1` (centres undefined), above 37.5 µg/mL. With `CCOC(=O)c1nn(-c2ccc(Cl)cc2)c(C)cc1=O` the figure was above 43.9 µg/mL; with `Cc1cc(C)n2nc(C(=O)N/N=C/c3cn(C)nc3C)nc2n1`, above 46.8 µg/mL.

As for `Cc1ccccc1OCCN(C#N)c1nc(N(C)C)nc(N(C)C)n1`, the kinetic solubility amounted to 0.4 µg/mL (≈ 1.17 µM).

`CC(C)(C)c1ccc(C(=O)NCCCNC(=O)c2cccnc2)cc1`: the kinetic solubility was found to be 49.2 µg/mL (≈ 145 µM). With `O=C(COC(=O)c1ccc2ccccc2n1)Nc1ccccc1Br` the figure was 12.4 µg/mL (≈ 32.2 µM); with `Cc1ccccc1CC(=O)NCCN1CCOCC1`, above 39.4 µg/mL. To `CCOC(=O)C(=CNc1ccc(OC)cc1[N+](=O)[O-])C(=O)OCC` belongs 0.9 µg/mL (≈ 2.66 µM); to `CCOc1ccccc1Nc1nnc(SCC(=O)NC2CCS(=O)(=O)C2)s1` (centres undefined), above 64.3 µg/mL; to `Cc1ccc(-c2csc(NC(=O)CN3CCOCC3)n2)cc1C`, 39.2 µg/mL (≈ 118 µM). In turn, `Cc1cc(C)cc(NC(=O)N(C)Cc2ccccc2)c1` displayed a kinetic solubility of 2 µg/mL (≈ 7.45 µM). With `COc1cc(C(=O)NC(=S)N2CCCCCC2)cc(OC)c1OC` the figure was 15.8 µg/mL (≈ 44.8 µM); with `COc1ccc(N=C2NC(=O)/C(=C/c3ccco3)S2)cc1`, 1.6 µg/mL (≈ 5.33 µM). The molecule `Cc1cc2c(SCC(=O)NC3CCCC3)ncnc2s1` yielded a solubility (kinetic) of 30.2 µg/mL (≈ 98.2 µM). Regarding `OCC1OC(Oc2c[nH]c3ccccc23)C(O)C(O)C1O` (centres undefined), the kinetic solubility was above 44.3 µg/mL.

`CC1CCCN(S(=O)(=O)c2cccc(C(=O)NCC3CCCO3)c2)C1` (centres undefined) had a solubility (kinetic) above 55 µg/mL. To `Cc1ccc(N2CC(=O)N(CC(=O)O)C2=O)cc1` belongs above 37.2 µg/mL; to `Cc1ccc(NC(=O)C2CCCN2C(=O)OCc2ccccc2)cc1C` (centres undefined), 11.5 µg/mL (≈ 32.6 µM); to `O=C(CCC(=O)c1cccs1)NCc1cccnc1`, above 41.2 µg/mL.

`Cc1cc(C)cc(N2C(=O)CC(Sc3ccccc3C(=O)O)C2=O)c1` (centres undefined) registered a solubility (kinetic) of 52.4 µg/mL (≈ 147 µM). With `CCCc1nnc(NC(=O)CCC(=O)N2CCCCC2)s1` the figure was above 46.6 µg/mL. To `COc1ccc(NC(=O)NC2(C(=O)N3CCCC(C)C3)CCCCC2)cc1` (centres undefined) belongs 36.2 µg/mL (≈ 96.9 µM); to `CCC(=O)N1CCN=C1SCc1cccc(F)c1`, above 39.9 µg/mL. To `CC1CN(C/C(=N\O)C23CC4CC(CC(C4)C2)C3)CC(C)O1` (centres undefined) belongs above 46 µg/mL; to `Cc1ccc2oc(=O)c(/C=C(\O)c3ccco3)nc2c1`, 31.7 µg/mL (≈ 118 µM). In turn, `COc1cccc(/C=C/c2[nH]c(=O)[nH]c(=O)c2[N+](=O)[O-])c1O` registered a solubility (kinetic) above 45.8 µg/mL. With `COCCSc1ccccc1C(=O)Nc1cc([N+](=O)[O-])ccc1OC` the figure was 4.1 µg/mL (≈ 11.3 µM); with `Cc1ccc(C(=O)COC(=O)c2cccc([N+](=O)[O-])c2)s1`, 7.1 µg/mL (≈ 23.3 µM). To `CC12CCC(C/C1=N\OC(=O)c1c(F)cccc1F)C2(C)C` (centres undefined) belongs 21.5 µg/mL (≈ 70 µM); to `CN(C(=O)Nc1cnc2ccccc2c1)c1ccccc1`, above 41.6 µg/mL.

For the origin of these results see PubChem BioAssay AID1996.
